In ChEMBL document CHEMBL4184242, “Synthesis and antibacterial studies of teixobactin analogues with non-isostere substitution of enduracididine” (2018):
≈ marks a conversion by molar mass, not a printed value.

Key:
Staphylococcus aureus [1] = test: Antibacterial activity against methicillin-susceptible Staphylococcus aureus ATCC 29213 by CLSI M100-S17 protocol based broth dilution method; assay type: functional
Staphylococcus aureus [2] = test: Antibacterial activity against methicillin-resistant Staphylococcus aureus isolate SA1114 by CLSI M100-S17 protocol based broth dilution method; assay type: functional

Structure (SMILES)	MIC (Staphylococcus aureus [1])	MIC (Staphylococcus aureus [2])
CC[C@@H](C)[C@@H](NC(=O)[C@@H](CCC(N)=O)NC(=O)[C@H](CO)NC(=O)[C@@H](NC(=O)[C@@H](Cc1ccccc1)NC)[C@@H](C)CC)C(=O)N[C@H](C(=O)N[C@@H](CO)C(=O)N[C@H]1C(=O)N[C@@H](C)C(=O)N[C@@H](C2CCCCC2)C(=O)N[C@@H]([C@@H](C)CC)C(=O)O[C@H]1C)[C@@H](C)CC	0.25 µg/mL (≈ 0.204 µM)	1 µg/mL (≈ 0.815 µM)
CC[C@@H](C)[C@@H](NC(=O)[C@@H](CCC(N)=O)NC(=O)[C@H](CO)NC(=O)[C@@H](NC(=O)[C@@H](Cc1ccccc1)NC)[C@@H](C)CC)C(=O)N[C@H](C(=O)N[C@@H](CO)C(=O)N[C@H]1C(=O)N[C@@H](C)C(=O)N[C@@H](CC2CCCCC2)C(=O)N[C@@H]([C@@H](C)CC)C(=O)O[C@H]1C)[C@@H](C)CC	0.5 µg/mL (≈ 0.403 µM)	2 µg/mL (≈ 1.61 µM)
CC[C@@H](C)[C@@H](NC(=O)[C@@H](CCC(N)=O)NC(=O)[C@H](CO)NC(=O)[C@@H](NC(=O)[C@@H](Cc1ccccc1)NC)[C@@H](C)CC)C(=O)N[C@H](C(=O)N[C@@H](CO)C(=O)N[C@H]1C(=O)N[C@@H](C)C(=O)NC(C)(C)C(=O)N[C@@H]([C@@H](C)CC)C(=O)O[C@H]1C)[C@@H](C)CC	≥ 32 µg/mL	≥ 32 µg/mL
CCC[C@@H]1NC(=O)[C@H](C)NC(=O)[C@H](NC(=O)[C@H](CO)NC(=O)[C@@H](NC(=O)[C@H](NC(=O)[C@@H](CCC(N)=O)NC(=O)[C@H](CO)NC(=O)[C@@H](NC(=O)[C@@H](Cc2ccccc2)NC)[C@@H](C)CC)[C@H](C)CC)[C@@H](C)CC)[C@H](C)OC(=O)[C@H]([C@@H](C)CC)NC1=O	0.25 µg/mL (≈ 0.211 µM)	1 to 2 µg/mL (≈ 0.842 to 1.68 µM)
CC[C@@H](C)[C@@H](NC(=O)[C@@H](CCC(N)=O)NC(=O)[C@H](CO)NC(=O)[C@@H](NC(=O)[C@@H](Cc1ccccc1)NC)[C@@H](C)CC)C(=O)N[C@H](C(=O)N[C@@H](CO)C(=O)N[C@H]1C(=O)N[C@@H](C)C(=O)N[C@@H](CC2CC2)C(=O)N[C@@H]([C@@H](C)CC)C(=O)O[C@H]1C)[C@@H](C)CC	0.5 µg/mL (≈ 0.417 µM)	2 µg/mL (≈ 1.67 µM)
CCCC[C@@H]1NC(=O)[C@H](C)NC(=O)[C@H](NC(=O)[C@H](CO)NC(=O)[C@@H](NC(=O)[C@H](NC(=O)[C@@H](CCC(N)=O)NC(=O)[C@H](CO)NC(=O)[C@@H](NC(=O)[C@@H](Cc2ccccc2)NC)[C@@H](C)CC)[C@H](C)CC)[C@@H](C)CC)[C@H](C)OC(=O)[C@H]([C@@H](C)CC)NC1=O	0.5 µg/mL (≈ 0.416 µM)	2 µg/mL (≈ 1.66 µM)
CC[C@@H](C)[C@@H](NC(=O)[C@@H](CCC(N)=O)NC(=O)[C@H](CO)NC(=O)[C@@H](NC(=O)[C@@H](Cc1ccccc1)NC)[C@@H](C)CC)C(=O)N[C@H](C(=O)N[C@@H](CO)C(=O)N[C@H]1C(=O)N[C@@H](C)C(=O)N[C@H](CCCCN)C(=O)N[C@@H]([C@@H](C)CC)C(=O)O[C@H]1C)[C@@H](C)CC	≥ 32 µg/mL	≥ 32 µg/mL
